In PubChem BioAssay (NCI):
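Test compounds were applied to cells in 96-well plates for 48 hours at 5 doses. TGI: concentration producing complete growth inhibition.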

Assays:
Experiment in all cases: NCI-60 cell line screen, 48 h
[1] = system: SF-539 CNS
[2] = system: HS 578T breast
[3] = system: CAKI-1 renal
[4] = system: SK-MEL-5 melanoma
[5] = system: BT-549 breast
[6] = system: MALME-3M melanoma
[7] = system: HT29 colon
[8] = system: UACC-257 melanoma
[9] = system: A498 renal
[10] = system: T-47D breast
[11] = system: LOX IMVI melanoma
[12] = system: IGROV1 ovarian
[13] = system: NCI/ADR-RES ovarian
[14] = system: SNB-19 CNS
[15] = system: DU-145 prostate
[16] = system: NCI-H226 lung
[17] = system: MCF7 breast
[18] = system: 786-0 renal
[19] = system: UO-31 renal
[20] = system: PC-3 prostate
[21] = system: A549 NSCLC
[22] = system: SF-268 CNS
[23] = system: KM12 colon
[24] = system: SK-MEL-28 melanoma
[25] = system: MDA-MB-231 breast
[26] = system: HCC-2998 colon
[27] = system: EKVX NSCLC
[28] = system: M14 melanoma
[29] = system: MDA-N
[30] = system: NCI-H522 lung
[31] = system: RPMI-8226 leukemia
[32] = system: CCRF-CEM leukemia
[33] = system: HL-60(TB) leukemia
[34] = system: SF-295 CNS
[35] = system: SN12C renal
[36] = system: HCT-116 colon
[37] = system: OVCAR-3 ovarian
[38] = system: TK-10 renal
[39] = system: NCI-H23 lung
[40] = system: HOP-62 NSCLC
[41] = system: NCI-H460 lung
[42] = system: ACHN renal
[43] = system: SW-620 colon
[44] = system: HCT-15 colon
[45] = system: MOLT-4 leukemia
[46] = system: OVCAR-8 ovarian
[47] = system: MDA-MB-435
[48] = system: HOP-92 NSCLC
[49] = system: K-562 leukemia
[50] = system: U251 CNS
[51] = system: COLO 205 colon
[52] = system: UACC-62 melanoma
[53] = system: SK-MEL-2 melanoma
[54] = system: SK-OV-3 ovarian
[55] = system: OVCAR-5 ovarian
[56] = system: SNB-75 CNS
[57] = system: OVCAR-4 ovarian

Question: With `O=C1CC(CC(O)C(O)CO)CC(=O)N1` (stereo unspecified) as the compound, how does the TGI [1] read?
Answer: > 100 µM

Question: And the TGI [2]?
Answer: > 100 µM

Question: What about the TGI [3] of the same compound?
Answer: > 100 µM

Question: And the TGI [4]?
Answer: > 100 µM

Question: What about the TGI [5] of the same compound?
Answer: > 100 µM

Question: And the TGI [6]?
Answer: > 100 µM

Question: And the TGI [7]?
Answer: > 100 µM

Question: What about the TGI [8] of the same compound?
Answer: > 100 µM

Question: What about the TGI [9] of the same compound?
Answer: > 100 µM

Question: And the TGI [10]?
Answer: > 100 µM

Question: What about the TGI [11] of the same compound?
Answer: > 100 µM

Question: And the TGI [12]?
Answer: > 100 µM

Question: And the TGI [13]?
Answer: > 100 µM

Question: What about the TGI [14] of the same compound?
Answer: > 100 µM

Question: What about the TGI [15] of the same compound?
Answer: > 100 µM

Question: And the TGI [16]?
Answer: > 100 µM

Question: And the TGI [17]?
Answer: > 100 µM

Question: What about the TGI [18] of the same compound?
Answer: > 100 µM

Question: What about the TGI [19] of the same compound?
Answer: > 100 µM

Question: What about the TGI [20] of the same compound?
Answer: > 100 µM

Question: And the TGI [21]?
Answer: > 100 µM

Question: And the TGI [22]?
Answer: > 100 µM

Question: What about the TGI [23] of the same compound?
Answer: > 100 µM

Question: What about the TGI [24] of the same compound?
Answer: > 100 µM

Question: What about the TGI [25] of the same compound?
Answer: > 100 µM

Question: And the TGI [26]?
Answer: > 100 µM

Question: What about the TGI [27] of the same compound?
Answer: > 100 µM

Question: What about the TGI [28] of the same compound?
Answer: > 100 µM

Question: What about the TGI [29] of the same compound?
Answer: > 100 µM

Question: And the TGI [30]?
Answer: > 100 µM

Question: What about the TGI [31] of the same compound?
Answer: > 100 µM

Question: And the TGI [32]?
Answer: > 100 µM

Question: And the TGI [33]?
Answer: > 100 µM

Question: What about the TGI [34] of the same compound?
Answer: > 100 µM

Question: And the TGI [35]?
Answer: > 100 µM

Question: And the TGI [36]?
Answer: > 100 µM

Question: And the TGI [37]?
Answer: > 100 µM

Question: And the TGI [38]?
Answer: > 100 µM

Question: And the TGI [39]?
Answer: > 100 µM

Question: What about the TGI [40] of the same compound?
Answer: > 100 µM

Question: What about the TGI [41] of the same compound?
Answer: > 100 µM

Question: And the TGI [42]?
Answer: > 100 µM

Question: And the TGI [43]?
Answer: > 100 µM

Question: And the TGI [44]?
Answer: > 100 µM

Question: What about the TGI [45] of the same compound?
Answer: > 100 µM

Question: What about the TGI [46] of the same compound?
Answer: > 100 µM

Question: What about the TGI [47] of the same compound?
Answer: > 100 µM

Question: What about the TGI [48] of the same compound?
Answer: > 100 µM

Question: And the TGI [49]?
Answer: > 100 µM

Question: And the TGI [50]?
Answer: > 100 µM

Question: Which results are given for `Fc1ccc(C(OCCN2CC3CC2CN3CCCc2ccccc2)c2ccc(F)cc2)cc1` (stereo unspecified)?
Answer: TGI [1]: 5.12 µM; TGI [2]: 25.8 µM; TGI [3]: 24.6 µM; TGI [4]: 3.39 µM; TGI [5]: 24 µM; TGI [6]: 8.27 µM; TGI [7]: 15.5 µM; TGI [51]: 3.11 µM; TGI [8]: 12.7 µM; TGI [9]: 18.3 µM; TGI [10]: 7.21 µM; TGI [11]: 19.2 µM; TGI [12]: 22.7 µM; TGI [13]: 19.8 µM; TGI [52]: 23.1 µM; TGI [14]: 27.3 µM; TGI [15]: 24.3 µM; TGI [16]: 23.9 µM; TGI [17]: 18.8 µM; TGI [18]: 18 µM; TGI [19]: 24.7 µM; TGI [20]: 17.7 µM; TGI [21]: 26.6 µM; TGI [22]: 22.4 µM; TGI [23]: 21.2 µM; TGI [24]: 9.09 µM; TGI [25]: 15.7 µM; TGI [26]: 5.7 µM; TGI [27]: 18.5 µM; TGI [28]: 3.79 µM; TGI [29]: 19 µM; TGI [30]: 21.2 µM; TGI [31]: 6.54 µM; TGI [53]: 21.8 µM; TGI [32]: 21.7 µM; TGI [33]: 12.3 µM; TGI [34]: 20.9 µM; TGI [54]: 31.7 µM; TGI [35]: 22.1 µM; TGI [36]: 18.5 µM; TGI [37]: 25.5 µM; TGI [38]: 23.7 µM; TGI [55]: 23.5 µM; TGI [39]: 23.8 µM; TGI [40]: 29.1 µM; TGI [41]: 17.3 µM; TGI [42]: 23.7 µM; TGI [43]: 24.1 µM; TGI [44]: 16.8 µM; TGI [45]: 12.5 µM; TGI [46]: 10.1 µM; TGI [47]: 20.5 µM; TGI [56]: 7.2 µM; TGI [48]: 26.7 µM; TGI [57]: 25.8 µM; TGI [50]: 19.5 µM
